The values that follow are results of earlier work, collected in paper PMC3838783 (Applied Biochemistry and Biotechnology, 2013).

Molecules are shown by their SMILES.

This series deals with rats.

`CC(=O)NO` [acetohydroxyamic acid]: the Teratogenicity result is “teratogenic”.
